# Data: US8592579B2, “Pyrrolotriazine kinase inhibitors” (Bristol-Myers Squibb Company, priority 2006, dated 2013)
# Test system: IGF1R-Sal tumors
# Assay: IGF-1R Sal Tumor Model
# Assay type: in vivo, nude mice
# Conditions: Mus musculus, 96 h, oral, 4 consecutive days, read-out: IGF-1R Sal % TGI; for inhibition in vivo at 25 mg/kg: 25 mpk, bid; for inhibition in vivo at 50 mg/kg: 50 mpk
# Method: A salivary gland adenocarcinoma that developed spontaneously in a transgenic mouse (MCI-19) was excised and cut into fragments of about 20 mg. Tumor fragments were implanted s.c. into the ventral thoracic region of a group of six female, athymic BALB/c nu/nu mice (Harley Sprague-Dawley, Indianapolis, Ind.), using a 13-gauge trocar. Once established, the salivary gland-derived tumor line was designated IGF 1R-Sal and was propagated as a tumor xenograft in nude mice. Tumors were passaged every 2 weeks, at which time the tumor reached f500 to 1,000 mm3 in size. […] Compounds were administered either on a bid schedule (oral doses 8 hours apart) or on a once a day schedule orally (qd) for 4 consecutive days. Tumors were measured at the start and end of treatment. Activity was measured as % tumor growth inhibition (% TGI). The % TGI was determined using the following formula (Ct−Tt)/(Ct−Co) where Ct is defined as the median tumor size of the control group at the end of treatment, Co is defined as the median tumor size of the control group at the start of treatment, and Tt is defined as the median tumor size of the treated group at the end of treatment.
Compound,inhibition in vivo at 25 mg/kg [%],also measured
"CNC(=O)[C@@H]1CCCN1c1nc(Nc2cc(C3CC3)[nH]n2)c2cccn2n1 [Example 3, (S)-1-(4-(5-cyclopropyl-1H-pyrazol-3-ylamino)pyrrolo[1,2-f][1,2,4]triazin-2-yl)-N-methylpyrrolidine-2-carboxamide]",,"inhibition in vivo at 6.25 mg/kg (6.25 mpk, qd): 80%"
C[C@@]1(C(=O)Nc2cccnc2)CCCN1c1nc(Nc2cc(C3CC3)[nH]n2)c2cccn2n1 [Example 68],76,
Cc1cc(Nc2nc(N3CCC[C@@]3(C)C(=O)Nc3cccnc3)nn3cccc23)n[nH]1 [Example 85],76,
Cc1cc(NC(=O)[C@]2(C)CCCN2c2nc(Nc3cc(C4CC4)[nH]n3)c3cccn3n2)n[nH]1 [Example 135],25,
"CC1(c2cc(Nc3nc(N4CCC[C@H]4C(=O)N[C@@H]4CCCNC4)nn4cccc34)n[nH]2)CC1 [Example 194, (S)-1-(4-(5-(1-methylcyclopropyl)-1H-pyrazol-3-ylamino)pyrrolo[1,2-f][1,2,4]triazin-2-yl)-N-((R)-piperidin-3-yl)pyrrolidine-2-carboxamide]",52,
"O=C(Nc1nccs1)[C@@H]1C[C@@H](F)CN1c1nc(Nc2cc(C3CC3)[nH]n2)c2cccn2n1 [Example 198, (2S,4R)-1-(4-(5-cyclopropyl-1H-pyrazol-3-ylamino)pyrrolo[1,2-f][1,2,4]triazin-2-yl)-4-fluoro-N-(thiazol-2-yl)pyrrolidine-2-carboxamide]",124,
O=C(Nc1cnccn1)[C@@H]1C[C@@H](F)CN1c1nc(Nc2cc(C3CC3)[nH]n2)c2cccn2n1 [Example 206],,inhibition in vivo at 50 mg/kg (qd): 111%
"O=C(Nc1ccc(F)nc1)[C@@H]1C[C@@H](O)CN1c1nc(Nc2cc(C3CC3)[nH]n2)c2cccn2n1 [Example 217, (2S,4R)-1-(4-(5-cyclopropyl-1H-pyrazol-3-ylamino)pyrrolo[1,2-f][1,2,4]triazin-2-yl)-N-(6-fluoropyridin-3-yl)-4-hydroxypyrrolidine-2-carboxamide]",0,
"C[C@@]1(C(=O)Nc2cnccn2)C[C@H](O)CN1c1nc(Nc2cc(C3CC3)[nH]n2)c2cccn2n1 [Example 227, (2S,4S)-1-(4-(5-cyclopropyl-1H-pyrazol-3-ylamino)pyrrolo[1,2-f][1,2,4]triazin-2-yl)-4-hydroxy-2-methyl-N-(pyrazin-2-yl)pyrrolidine-2-carboxamide]",,inhibition in vivo at 50 mg/kg (qd): 115%
"CC(C)n1cnc(Nc2nc(N3CCC[C@H]3C(=O)NC3CCCN(C)C3)nn3cccc23)c1 (stereo partly drawn) [Example 236, (S)-1-(4-(1-Isopropyl-1H-imidazol-4-ylamino)pyrrolo[1,2-f][1,2,4]triazin-2-yl)-N-((R)-1-methylpiperidin-3-yl)pyrrolidine-2-carboxamide]",113,
"CC(C)n1cnc(Nc2nc(N3C[C@@H](O)C[C@H]3C(=O)Nc3cnccn3)nn3cccc23)c1 [Example 245, (2S,4S)-4-hydroxy-1-(4-(1-isopropyl-1H-imidazol-4-ylamino)pyrrolo[L2-f][1,2,4]triazin-2-yl)-N-(pyrazin-2-yl)pyrrolidine-2-carboxamide]",,inhibition in vivo at 50 mg/kg (qd): 112%
